Measurements as given in patent US6818212B2, “Antimicrobial composition containing a haloperoxidase, a hydrogen peroxide source, a halide source and an ammonium source” (Novozymes A/S, priority 1997, dated 2004).

Tests used:
Assay type in all cases: cell-based
[1] = tested on: Staphylococcus epidermidis DSM 20 042; experiment: Bactericidal activity of haloperoxidase with ammonium halides vs potassium/sodium halides as electron donors, Example 3; conditions: for bactericidal activity (possible): ammonium halide salt as electron donor, summary of Table 1; for Log reduction in cell number: haloperoxidase 1 mg/l, 0.5 mM H2O2, pH 6.0, 15 min 40° C.
Description: (§1) The bactericidal activity was determined by incubation in Malthus. The detection times measured by the Malthus instrument were converted to cfu/ml by a calibration curve.
(§2) Either direct or indirect Malthus measurements were used when enumerating total survival cells (Malthus Flexi M2060, Malthus Instrument Limited). By the direct measurements, the cell metabolism was determined by conductance measurements in the growth substrate. By the indirect measurements, 3 ml of growth medium was transferred to the outer chamber of the indirect Malthus cells, and 0.5 ml of sterile KOH (0.1 M) was transferred to the inner chamber. The cell suspensions were after enzyme treatment transferred to the outer chamber of the Malthus cell. As cells are growing in the outer chamber they produce CO2 which will dissolve in the KOH in the inner chamber and thereby change the conductance of the KOH. The amount of CO2 formed by the respiring cells surviving the enzyme treatment was used for estimating the number of viable cells. When the conductance change is measurable by the Malthus, a detection time (dt) will be recorded. The dt's were converted to colony counts by use of a calibration curve relating cfu/ml to dt (FIG. 1).
(§3) The antibacterial activity of a haloperoxidase (1 mg/l) was tested in MES-buffer (2-[N-morpholino] ethanesulfonic acid) (pH 6.0) against Staphylococcus epidermidis DSM 20 042 with ammonium iodide, ammonium chloride or ammonium bromide as electron donors, and hydrogen peroxide was added as electron acceptor giving the final concentration 0.5 mM. The cells (approximately 10^6 cfu/ml) were incubated with enzyme for 15 min at 40° C. The bactericidal activity was determined by incubation in Malthus (see Example 1).

[2] = tested on: Pseudomonas aeruginosa ATCC 10146; experiment: Bactericidal activity of haloperoxidase (rCvP) system, Malthus detection, Example 1; conditions: haloperoxidase 1 mg/l, 0.5 mM H2O2, pH 6
Description: (§4) The antibacterial activity of a haloperoxidase was tested in MES-buffer (2-[N-morpholino] ethanesulfonic acid)(pH 6.0) against Pseudomonas aeruginosa ATCC 10146 and Staphylococcus epidermidis DSM 20 042 with sodium chloride as electron donor, and hydrogen peroxide was added as electron acceptor in the presence of NH4+. The cells (approximately 10^6 cfu/ml) were incubated with the enzyme for 15 min at 40° C.
as §1, §2
(§5) Hydrogen peroxide was added to a final concentration of 0.5 mM.

[3] = tested on: Staphylococcus epidermidis DSM 20 042; experiment: as above; conditions: haloperoxidase 1 mg/l, 0.5 mM H2O2, pH 6
Description: as §4, §1, §2, §5

[4] = tested on: Staphylococcus epidermidis DSM 20 042; experiment: Bactericidal activity of haloperoxidase with iodide or bromide, with or without NH4+, Example 2; conditions: haloperoxidase 1 mg/l
Description: as §1, §2
as §3, with “potassium iodide and potassium” for “ammonium iodide, ammonium chloride or ammonium”, “donor,” for “donors,”, “peroxide (to a final concentration of 0.5 mM)” for “peroxide”, “in” for “giving”, “presence of NH4^+.” for “final concentration 0.5 mM.”

[5] = tested on: Staphylococcus epidermidis DSM 20 042; experiment: Bactericidal activity of haloperoxidase with chloride and ethanolamine, HEPES pH 7.0, Example 4; conditions: haloperoxidase 1 mg/L, chloride 80 mM, ethanolamine 2.5 mM, 0.5 mM H2O2, pH 7.0
Description: as §1
as §2, with “The amount of CO2 formed by the respiring cells surviving the enzyme treatment was used for estimating the number of viable cells.” left out, “The dt's were converted to colony counts by use of a calibration curve relating cfu/ml to dt (FIG. 1).” left out
The antibacterial activity of Curvularia verruculosa haloperoxidase (1 mg/L) was tested in HEPES-buffer (Sigma H3375)(pH 7.0) against Staphylococcus epidermidis DSM 20 042 with chloride (80 mM) as electron donor combined with ethanolamine (2.5 mM), and hydrogen peroxide was added as electron acceptor giving the final concentration 0.5 mM. […] The bactericidal activity was determined by incubation in Malthus (see Example 1).

[6] = 0.5 mM H2O2, pH 6.0, no ammonium

Cl.N [ClNH4, ammonium chloride]
bactericidal activity (possible) [1]: 100% | Log reduction in cell number ([1]; halide 25 mM): 6.2 log cfu/ml | Log reduction in cell number ([1]; halide 50 mM): 6.2 log cfu/ml

I.N [INH4, ammonium iodide]
bactericidal activity (possible) [1]: 100% | Log reduction in cell number ([1]; halide 0.21 mM): 6.2 log cfu/ml | Log reduction in cell number ([1]; halide 0.5 mM): 6.2 log cfu/ml

[Cl-].[Na+] [NaCl, sodium chloride]
NaCl concentration at which antibacterial activity was observed [2]: above 20 mM | NaCl concentration at which plateau of antibacterial activity was reached [2]: approximately 100 mM | NaCl concentration at which antibacterial activity was observed [3]: above 20 mM | NaCl concentration at which plateau of antibacterial activity was reached [3]: approximately 100 mM | Log reduction in cell number ([1]; halide 25 mM): 0.5 log cfu/ml | Log reduction in cell number ([1]; halide 50 mM): 0.8 log cfu/ml

[Br-].[K+] [KBr, potassium bromide]
bromide concentration needed for 100% bactericidal activity [4, 6]: > 10 mM | Log reduction in cell number ([1]; halide 4 mM): 2.8 log cfu/ml | Log reduction in cell number ([1]; halide 8 mM): 5.4 log cfu/ml

NCCO [ethanolamine]
kill [5]: 100%

[I-].[K+] [KI, potassium iodide]
iodide concentration for 100% bactericidal activity ([4]; 0.5 mM H2O2, pH 6.0, ammonium added (FIG. 3)): 0.05-0.1 mm | iodide concentration for 100% antibacterial activity [4, 6]: about 0.2 mM | Log reduction in cell number ([1]; halide 0.25 mM): 5.1 log cfu/ml | Log reduction in cell number ([1]; halide 0.5 mM): 6.1 log cfu/ml

Br.N [BrNH4, ammonium bromide]
bactericidal activity (possible) [1]: 100% | Log reduction in cell number ([1]; halide 4 mM): 3.7 log cfu/ml | Log reduction in cell number ([1]; halide 8 mM): 6.2 log cfu/ml
